Results: ChEMBL document CHEMBL1781983, “Hop (Humulus lupulus)-derived bitter acids as multipotent bioactive compounds” (J Nat Prod, 2009)

Experiments:
Chorioallantoic membrane = assay: Inhibition of angiogenesis in chick embryo chorioallantoic membranes; assay type: functional; conditions: Gallus gallus
[1] = Antioxidant activity assessed as inhibition of lipid peroxidation; assay type: functional
[2] = target: T1, Prostaglandin G/H synthase 2 (Mus musculus, UniProt Q05769); assay: Inhibition of COX2-mediated PGE2 production in TNF-alpha-induced mouse MC3T3-E1 cells
T1 sequence (Q05769 whole entry): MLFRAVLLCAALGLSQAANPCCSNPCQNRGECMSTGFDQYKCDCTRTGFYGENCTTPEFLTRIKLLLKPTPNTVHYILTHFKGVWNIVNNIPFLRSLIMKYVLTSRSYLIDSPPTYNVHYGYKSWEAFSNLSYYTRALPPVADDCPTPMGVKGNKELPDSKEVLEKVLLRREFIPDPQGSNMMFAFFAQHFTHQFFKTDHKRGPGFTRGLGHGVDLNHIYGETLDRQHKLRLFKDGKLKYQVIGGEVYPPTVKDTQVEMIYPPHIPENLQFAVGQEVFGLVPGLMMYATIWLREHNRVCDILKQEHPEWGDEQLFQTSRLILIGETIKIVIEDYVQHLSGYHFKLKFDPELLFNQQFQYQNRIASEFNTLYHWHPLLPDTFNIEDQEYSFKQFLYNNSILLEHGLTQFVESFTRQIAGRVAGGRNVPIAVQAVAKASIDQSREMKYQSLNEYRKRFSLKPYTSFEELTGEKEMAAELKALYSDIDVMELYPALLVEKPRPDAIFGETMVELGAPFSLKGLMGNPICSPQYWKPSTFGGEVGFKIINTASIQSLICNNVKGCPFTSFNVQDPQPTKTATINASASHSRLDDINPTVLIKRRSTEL

Osteoclast = assay: Inhibition of osteoporotic lesion formation in ICR mouse osteoclasts bone cells using ivory pieces after 2 days by pit formation assay; assay type: functional, cell-based; conditions: 48 h
U-937 = assay: Antiproliferative activity against human U937 cells
Mus musculus [3] = assay: Antiinflammatory activity in mouse assessed as inhibition of TPA-induced ear edema measured per ear; assay type: functional
[4] = Antioxidant activity in human RBC assessed as inhibition of hydrogen peroxide-induced hemolysis after 3 hrs; assay type: functional, cell-based; conditions: erythrocyte
[5] = test system: Radical scavenging activity; assay: Antioxidant activity assessed as DPPH radical scavenging activity; assay type: functional
[6] = Antiangiogenic activity against bFGF-indeced mouse KOP2.16 cells assessed as reduction in cell growth at 10 uM; assay type: functional
Mus musculus [7] = assay: Antiangiogenic activity in mouse at 0.01%, po for 21 days; assay type: functional

| Structure (SMILES) | ED50 (Chorioallantoic membrane) | IC50 [1] | IC50 [2] | IC50 (Osteoclast) | IC50 (U-937) | ID50 (Mus musculus [3]) | IC50 [4] | IC50 [5] | inhibition at 10 µM [6] | inhibition (INH) (Mus musculus [7]) |
| --- | --- | --- | --- | --- | --- | --- | --- | --- | --- | --- |
| CC(C)=CCC1C(=O)C(C(=O)CC(C)C)=C(O)C(O)(CC=C(C)C)C1=O (centres undefined) [HUMULONE] | 1.5 µg | 7.9 µM | 0.03 µM | 0.0059 µM | 3.4 µM | 0.2 mg | 28 µM | 32 µM | 20% | – |
| C[C@]12CCC(=O)C=C1CC[C@@H]1[C@@H]2[C@@H](O)C[C@@]2(C)[C@H]1CC[C@]2(O)C(=O)CO [HYDROCORTISONE] | – | – | – | – | – | 0.03 mg | – | – | – | – |
| CC(C)=CCC1=C(O)C(C(=O)CC(C)C)=C(O)C(CC=C(C)C)(CC=C(C)C)C1=O [LUPULONE] | – | 39 µM | – | – | – | – | – | 25 µM | – | 50% |
| COc1ccc2c(c1)c(CC(=O)O)c(C)n2C(=O)c1ccc(Cl)cc1 [INDOMETHACIN] | – | – | – | – | – | 0.3 mg | – | – | – | – |
